According to US12600728B2, “Interleukin-17 inhibitors” (priority 2020, dated 2026):
Like-named read-outs stand apart in the source and are kept apart here.

Key:
[1] = target: recombinant human IL-17AA (Homo sapiens, UniProt Q16552); assay: IL-6 release from NHDF cells, IL-17AA plus TNF-α stimulation; format: cell-based; conditions: IL-17AA 30 pM plus TNF-α 6 pM, 24 hours, IL-6 by ELISA
In short: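 ELISA measured IL-6 in supernatants after 24 h at 37° C of NHDF cells with a compound/cytokine cocktail, pre-mixed 30 min at room temperature. Duplicates; 0.1% DMSO or 20% plasma final. IC50 from IL-6 remaining after subtracting the TNF-α-alone signal.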

[2] = target: biotinylated human IL-17A / AF647-labeled human IL-17RA (Homo sapiens, UniProt Q16552); assay: Human IL-17A×IL-17RA TR-FRET assay; format: binding; conditions: biotinylated human IL-17A 5 nM, AF647-labeled human IL-17RA 30 nM
In short: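 Compounds tested in duplicate at each concentration; neutral controls contain all components with DMSO in place of compound.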

[3] = NHDF cells, read-out: IL17AA + TNF IC50 IL-6
[4] = TR-FRET, read-out: IL17AA FRET/ IL17Rawt IC50

recombinant human IL-17AA, sequence (Q16552 24-155): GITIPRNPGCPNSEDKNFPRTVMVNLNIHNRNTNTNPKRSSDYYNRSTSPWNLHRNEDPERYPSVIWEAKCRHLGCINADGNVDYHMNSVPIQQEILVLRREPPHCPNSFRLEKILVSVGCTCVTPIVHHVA
biotinylated human IL-17A / AF647-labeled human IL-17RA, sequence (Q16552 24-155): as above

IC50 [1, 3] | IC50 [2, 4] | SMILES | IC50 ([1]; IL17AA + TNF IC50 IL-6, NHDF cells) | IC50 ([2]; IL17AA FRET/ IL17Rawt IC50, TR-FRET)
45 nM | 72 nM | Cc1c[n+]([O-])cc(C)c1-c1ccc(NC(=O)[C@@H](NC(=O)c2ccnn2C)[C@H]2CCc3ccccc3C2)cc1 [Example 103, 3,5-dimethyl-4-(4-((S)-2-(1-methyl-1H-pyrazole-5-carboxamido)-2-((S)-1,2,3,4-tetrahydronaphthalen-2-yl)acetamido)phenyl)pyridine 1-oxide] |  | 
139 nM | 1600 nM | Cc1cc[n+]([O-])c(C(F)F)c1-c1ccc(NC(=O)[C@@H](NC(=O)c2ccnn2C)C2CCCCC2)cc1 [Example 104, (S)-3-(4-(2-cyclohexyl-2-(1-methyl-1H-pyrazole-5-carboxamido)acetamido)phenyl)-2-(difluoromethyl)-4-methylpyridine 1-oxide] |  | 
18 nM | 50 nM | Cc1nocc1C(=O)N[C@H](C(=O)Nc1ccc(-c2c(Cl)cc[n+]([O-])c2C)c(F)c1)C1CCC(F)(F)CC1 [Example 106, 4-chloro-3-(4-((S)-2-(4,4-difluorocyclohexyl)-2-(3-methylisoxazole-4-carboxamido)acetamido)-2-fluorophenyl)-2-methylpyridine 1-oxide] |  | 
15 nM | 19 nM | Cc1c(-c2ccc(NC(=O)[C@@H](NC(=O)c3ccnn3C)C3CCC(F)(F)CC3)cc2F)c(Cl)cc[n+]1[O-] [Example 107, 4-chloro-3-(4-((S)-2-(4,4-difluorocyclohexyl)-2-(1-methyl-1H-pyrazole-5-carboxamido)acetamido)-2-fluorophenyl)-2-methylpyridine 1-oxide] |  | 
 |  | CCn1nccc1C(=O)NC(C(=O)Nc1ccc(-c2c(Cl)cc[n+]([O-])c2C)c(F)c1)C1CCC(F)(F)CC1 (stereo not shown) [Example 108, 4-chloro-3-(4-(2-(4,4-difluorocyclohexyl)-2-(1-ethyl-1H-pyrazole-5-carboxamido)acetamido)-2-fluorophenyl)-2-methylpyridine 1-oxide] | 7 nM | 30 nM
84 nM | 164 nM | Cc1cc[n+]([O-])c(C)c1-c1ccc(NC(=O)[C@@H](NC(=O)c2ccnn2C)C2CCC(F)(F)CC2)cc1F [Example 109, 3-(4-((S)-2-(4,4-difluorocyclohexyl)-2-(1-methyl-1H-pyrazole-5-carboxamido)acetamido)-2-fluorophenyl)-2,4-dimethylpyridine 1-oxide] |  | 
162 nM | 1040 nM | Cn1nccc1C(=O)N[C@H](C(=O)Nc1ccc(-c2c[n+]([O-])ccc2Cl)cc1)C1CCCCC1 [Example 112, (S)-4-chloro-3-(4-(2-cyclohexyl-2-(1-methyl-1H-pyrazole-5-carboxamido)acetamido)phenyl)pyridine 1-oxide] |  | 
38 nM | 339 nM | Cc1cc(-c2ccc(NC(=O)[C@@H](NC(=O)c3ccnn3C)C3CCCCC3)cc2)c(C)[n+]([O-])c1 [Example 113, (S)-3-(4-(2-cyclohexyl-2-(1-methyl-1H-pyrazole-5-carboxamido)acetamido)phenyl)-2,5-dimethylpyridine 1-oxide] |  | 
201 nM | 1380 nM | Cc1c(-c2ccc(NC(=O)[C@@H](NC(=O)c3ccnn3C)C3CCCCC3)cc2)cc(CO)c[n+]1[O-] [Example 115, (S)-3-(4-(2-cyclohexyl-2-(1-methyl-1H-pyrazole-5-carboxamido)acetamido)phenyl)-5-(hydroxymethyl)-2-methylpyridine 1-oxide] |  | 
118 nM | 304 nM | Cc1c[n+]([O-])cc(C)c1-c1ccc(NC(=O)[C@@H](NC(=O)c2ccc3n2CCNC3)C2CCCCCC2)cc1 [Example 116, (S)-4-(4-(2-cycloheptyl-2-(1,2,3,4-tetrahydropyrrolo[1,2-a]pyrazine-6-carboxamido)acetamido)phenyl)-3,5-dimethylpyridine 1-oxide] |  | 
121 nM | 161 nM | Cc1c[n+]([O-])cc(C)c1-c1ccc(NC(=O)[C@@H](NC(=O)c2ccc3n2CCN(C)C3)C2CCCCCC2)cc1 [Example 117, (S)-4-(4-(2-cycloheptyl-2-(2-methyl-1,2,3,4-tetrahydropyrrolo[1,2-a]pyrazine-6-carboxamido)acetamido)phenyl)-3,5-dimethylpyridine 1-oxide] |  | 
20 nM | 183 nM | CC(=O)N1CCn2c(ccc2C(=O)N[C@H](C(=O)Nc2ccc(-c3c(C)c[n+]([O-])cc3C)cc2)C2CCCCCC2)C1 [Example 118, (S)-4-(4-(2-(2-acetyl-1,2,3,4-tetrahydropyrrolo[1,2-a]pyrazine-6-carboxamido)-2-cycloheptylacetamido)phenyl)-3,5-dimethylpyridine 1-oxide] |  | 
15 nM | 130 nM | Cc1cc[n+]([O-])c(C)c1-c1ccc(NC(=O)[C@@H](NC(=O)c2ccn3c2CN(C)CC3)C2CCCCCC2)cc1 [Example 119, (S)-3-(4-(2-cycloheptyl-2-(2-methyl-1,2,3,4-tetrahydropyrrolo[1,2-a]pyrazine-8-carboxamido)acetamido)phenyl)-2,4-dimethylpyridine 1-oxide] |  | 
4 nM | 94 nM | Cc1cc[n+]([O-])c(C)c1-c1ccc(NC(=O)[C@@H](NC(=O)c2ccc3n2CCN(C)C3)C2CCCCCC2)cc1 [Example 120, (S)-3-(4-(2-cycloheptyl-2-(2-methyl-1,2,3,4-tetrahydropyrrolo[1,2-a]pyrazine-6-carboxamido)acetamido)phenyl)-2,4-dimethylpyridine 1-oxide] |  | 
17 nM | 111 nM | Cc1cc[n+]([O-])c(C)c1-c1ccc(NC(=O)C(NC(=O)c2ccc3n2CCN(C)C3)C2CCC(C)CC2)cc1 [Example 121, 2,4-dimethyl-3-(4-((S)-2-(2-methyl-1,2,3,4-tetrahydropyrrolo[1,2-a]pyrazine-6-carboxamido)-2-((1r,4S)-4-methylcyclohexyl)acetamido)phenyl)pyridine 1-oxide] |  | 
9 nM | 128 nM | Cc1c(-c2ccc(NC(=O)[C@@H](NC(=O)c3ccc4n3CCN(C)C4)C3CCCCCC3)cc2F)c(Cl)cc[n+]1[O-] [Example 122, 4-chloro-3-(4-((S)-2-cycloheptyl-2-(2-methyl-1,2,3,4-tetrahydropyrrolo[1,2-a]pyrazine-6-carboxamido)acetamido)-2-fluorophenyl)-2-methylpyridine 1-oxide] |  | 
59 nM | 150 nM | Cc1c(-c2ccc(NC(=O)[C@@H](NC(=O)c3ccc4n3CCN(C)C4)C3CCC(F)(F)CC3)cc2)c(Cl)cc[n+]1[O-] [Example 123, (S)-4-chloro-3-(4-(2-(4,4-difluorocyclohexyl)-2-(2-methyl-1,2,3,4-tetrahydropyrrolo[1,2-a]pyrazine-6-carboxamido)acetamido)phenyl)-2-methylpyridine 1-oxide] |  | 
8 nM | 172 nM | Cc1c(-c2ccc(NC(=O)[C@@H](NC(=O)c3ccc4n3CCN(C)C4)C3CCCCC3)cc2F)c(Cl)cc[n+]1[O-] [Example 124, 4-chloro-3-(4-((S)-2-cyclohexyl-2-(2-methyl-1,2,3,4-tetrahydropyrrolo[1,2-a]pyrazine-6-carboxamido)acetamido)-2-fluorophenyl)-2-methylpyridine 1-oxide] |  | 
18 nM | 174 nM | Cc1cc[n+]([O-])c(C)c1-c1ccc(NC(=O)C(NC(=O)c2ccc3n2CCN(C)C3)C2CCC(C(F)(F)F)CC2)cc1 [Example 125, 2,4-dimethyl-3-(4-((S)-2-(2-methyl-1,2,3,4-tetrahydropyrrolo[1,2-a]pyrazine-6-carboxamido)-2-((1r,4S)-4-(trifluoromethyl)cyclohexyl)acetamido)phenyl)pyridine 1-oxide] |  | 
62 nM | 228 nM | Cc1c(-c2ccc(NC(=O)[C@@H](NC(=O)c3ccc4n3CCN(C)C4)C3CCCCC3)cc2F)ccc[n+]1[O-] [Example 126, (S)-3-(4-(2-cyclohexyl-2-(2-methyl-1,2,3,4-tetrahydropyrrolo[1,2-a]pyrazine-6-carboxamido)acetamido)-2-fluorophenyl)-2-methylpyridine 1-oxide] |  | 
12 nM | 236 nM | Cc1cc[n+]([O-])c(C)c1-c1ccc(NC(=O)[C@@H](NC(=O)c2ccc3n2CCN(C)C3)C2CCCCC2)cc1 [Example 127, (S)-3-(4-(2-cyclohexyl-2-(2-methyl-1,2,3,4-tetrahydropyrrolo[1,2-a]pyrazine-6-carboxamido)acetamido)phenyl)-2,4-dimethylpyridine 1-oxide] |  | 
54 nM | 299 nM | Cc1cc[n+]([O-])c(C)c1-c1ccc(NC(=O)[C@@H](NC(=O)c2ccc3n2CCN(C)C3)C2CC=C(F)CC2)cc1 (stereo partly drawn) [Example 128, 3-(4-((2S)-2-(4-fluorocyclohex-3-en-1-yl)-2-(2-methyl-1,2,3,4-tetrahydropyrrolo[1,2-a]pyrazine-6-carboxamido)acetamido)phenyl)-2,4-dimethylpyridine 1-oxide] |  | 
956 nM | 124 nM | Cc1cc[n+]([O-])c(C)c1-c1ccc(NC(=O)[C@H](Cc2ccccc2Cl)NC(=O)c2ccc3n2CCN(C)C3)cc1 [Example 130, (S)-3-(4-(3-(2-chlorophenyl)-2-(2-methyl-1,2,3,4-tetrahydropyrrolo[1,2-a]pyrazine-6-carboxamido)propanamido)phenyl)-2,4-dimethylpyridine 1-oxide] |  | 
